Values joined by “and” are separate entries in the source; they are usually repeats but may differ in a detail not shown here. Equal entries are not always repeated.
Key:
[1] = test system: Trichostrongylus colubriformis; test: Efficacy against naturally occurring parasitic infestation in sheep, Trichostrongylus colubriformis male; assay type: in vivo, Trichostrongylus colubriformis (host: lambs); conditions: naturally infected sheep, single oral dose 100 mg/kg
Protocol: (§1) Efficacy of 3',4'-Dichloro-4-hydroxy-2-oxo-2H-1-benzopyran-3 -carboxanilideagainst Naturally Occurring Parasitic
(§2) Lambs naturally infected with a number of parasitic species are treated with 100 mg/kg of body weight with the compound under tested administration as a single oral dose. After treatment, 24 hour fecal outputs for 3 days are collected from each animal and examined for the passage of parasites. Three days post treatment the lambs are necropsied and examined for parasites. Percent efficacy is calculated using the formula: [formula]

Bunostomum = test: Efficacy against naturally occurring parasitic infestation in sheep, Bunostomum; assay type: in vivo, Bunostomum (host: lambs); conditions: naturally infected sheep, single oral dose 100 mg/kg
Protocol: as §1, §2

Haemonchus contortus = test: Evaluation (efficacy) test in experimentally inoculated sheep, Haemonchus contortus; assay type: in vivo, Haemonchus contortus (host: lambs); conditions: intraruminal dose 50 mg/kg
Protocol: (§3) Evaluation (Efficacy) Test in Sheep
(§4) Lambs are experimentally inoculated with Haemonchus contortus (H.c.), Trichostrongylus axei (T.a.), Ostertagia circumcincta (O.c) and Trichostrongylus colubriformis (T.c.) species. At patency of the parasites the lambs are treated with 50 mg/kg of body weight with the compound under test administered as an intraruminal injection in 0.2 percent agar. Three days post treatment treated lambs and similary inoculated controls are necropsied and examined for parasites. Percent efficacy is calculated by comparing the average worm burden in the treated group with the average worm burden in the control group.

[2] = test system: Trichostrongylus colubriformis; test: Evaluation (efficacy) test in experimentally inoculated sheep, Trichostrongylus colubriformis; assay type: in vivo, Trichostrongylus colubriformis (host: lambs); conditions: intraruminal dose 50 mg/kg
Protocol: as §3, §4

[3] = test system: Trichostrongylus vitrinus; test: Efficacy against naturally occurring parasitic infestation in sheep, Trichostrongylus vitrinus male; assay type: in vivo, Trichostrongylus vitrinus (host: lambs); conditions: naturally infected sheep, single oral dose 100 mg/kg
Protocol: as §1, §2

Ostertagia circumcincta = test: Evaluation (efficacy) test in experimentally inoculated sheep, Ostertagia circumcincta; assay type: in vivo, Ostertagia circumcincta (host: lambs); conditions: intraruminal dose 50 mg/kg
Protocol: as §3, §4

Ascaris suum = test: Efficacy against Ascaris suum in mice (lung pathology and lung larvae versus controls); assay type: in vivo, Ascaris suum (host: Swiss Webster mice); design: key: Active; Inactive
Protocol: (§5) Efficacy of 4-Hydroxy-2-oxo-2H-1-benzopyran-3-carboxanilide derivatives against various helminths in mice
(§6) Six weeks old Swiss Webster mice are orally inoculated with Nematospiroides dubius, Hymenolepis nana and Aspicularis tetraptera. Eighteen days postinoculation the mice are treated with the appropriate drug diet level for 7 days. For single oral dose administration the compound is thoroughly mixed with 0.1 percent agar and orally intubated at the required dosage 22 days postinfection. 10-15,000 Ascaris suum infective eggs are administered to mice after 1 day on diet medication or 3 days prior to single oral dose administration. Determination of efficacy is done by counting all the N. dubius in treated mice versus the control average. For H. nana and A. tetraptera the absence or presence of these parasites in treated mice is the criterior for determining activity. For A. suum activity the following criterion was used. Reduction or elimination of lung pathology and the total number of lung larvae from treated animals was compared to lung larvae recovered from controls.

Hymenolepis nana = test: Efficacy against Hymenolepis nana in mice (absence or presence of parasites); assay type: in vivo, Hymenolepis nana (host: Swiss Webster mice); design: key: Active; Inactive
Protocol: as §5, §6

Cooperia punctata = test: Efficacy against naturally occurring parasitic infestation in sheep, Cooperia punctata; assay type: in vivo, Cooperia punctata (host: lambs); conditions: naturally infected sheep, single oral dose 100 mg/kg
Protocol: as §1, §2

Aspicularis tetraptera = test: Efficacy against Aspicularis tetraptera in mice (absence or presence of parasites); assay type: in vivo, Aspicularis tetraptera (host: Swiss Webster mice); design: key: Active; Inactive
Protocol: as §5, §6

Nematospiroides dubius = test: Efficacy against Nematospiroides dubius in mice (worm count in treated mice versus control average); assay type: in vivo, Nematospiroides dubius (host: Swiss Webster mice); design: key to % Eff. N.d. (class symbol): Active; Inactive; conditions: for inhibition in vivo at 0.05 % / inhibition in vivo at 0.1 %: po, 168 h; for inhibition in vivo at 0.05 %: drug diet 0.05% for 7 days; for inhibition in vivo at 0.1 %: drug diet 0.1% for 7 days
Protocol: as §5, §6

[4] = test system: Trichostrongylus colubriformis; test: Evaluation against Trichostrongylus colubriformis in the Mongolian gerbil; assay type: in vivo, Trichostrongylus colubriformis (host: Mongolian gerbil)
Protocol: Evaluation of 3',4'-Dichloro-4-hydroxy-2-oxo-2H-1-benzopyran-3-carboxanilide against Trichlostrongylus colubriformis in the Mongolian Gerbil Monogolian gerbils are inoculated with 2000 T. colubriformis larvae each. Fourteen to 94 days post inoculation the gerbils are treated with the appropiate drug level diet for 6 days. For single oral dose administration the compound is thoroughly mixed with 0.1 percent agar and orally intubated at the required level. After treatment, 24 hour fecal outputs for 3 days are collected from each animal and examined for passage of parasites. Three days post treatment the gerbils are necropsied and examined for parasites. Percent efficacy is calculated using the formula: [formula]

Trichostrongylus axei = test: Evaluation (efficacy) test in experimentally inoculated sheep, Trichostrongylus axei; assay type: in vivo, Trichostrongylus axei (host: lambs); conditions: intraruminal dose 50 mg/kg
Protocol: as §3, §4

[5] = Heligmosomoides polygyrus, read-out: % Eff. N.d.

For `O=C(Nc1ccc(Cl)c(Cl)c1)c1c(O)c2ccccc2oc1=O` [Example 1, 3',4'-Dichloro-4-hydroxy-2-oxo-2H-1-benzopyran-3-carboxanilide], the “% Efficacy T.c. Male” value [1] was 85% and 61%, the “% Efficacy Bun.” value (Bunostomum) was 100% and the “% Efficacy H.c.” value (Haemonchus contortus) was 100%. For the same compound, the “% Efficacy T.c.” value [2] was 35%, the “% Efficacy T.v. Male” value [3] was 100% and 79% and the “% Efficacy O.c.” value (Ostertagia circumcincta) was 86%. For the same compound, the A.s. activity (Ascaris suum; drug diet 0.05% for 7 days) was “i”, the A.s. activity (Ascaris suum; drug diet 0.1% for 7 days) was “i” and the A.s. activity (Ascaris suum; single oral dose 100 mg/kg) was “i”. The A.s. activity (Ascaris suum; single oral dose 500 mg/kg) was “A”, the A.s. activity (Ascaris suum; single oral dose 1000 mg/kg) was “A” and the A.s. activity (Ascaris suum; single oral dose 2000 mg/kg) was “A”. The H.n. activity (Hymenolepis nana; drug diet 0.05% for 7 days) was “i”, the H.n. activity (Hymenolepis nana; drug diet 0.1% for 7 days) was “A” and the H.n. activity (Hymenolepis nana; single oral dose 100 mg/kg) was “i”. For the same compound, the H.n. activity (Hymenolepis nana; single oral dose 500 mg/kg) was “i”, the H.n. activity (Hymenolepis nana; single oral dose 1000 mg/kg) was “i” and the “% Efficacy C.p.” value (Cooperia punctata) was 100%. The A.t. activity (Aspicularis tetraptera; drug diet 0.1% for 7 days) was “A”, the A.t. activity (Aspicularis tetraptera; single oral dose 100 mg/kg) was “A” and the A.t. activity (Aspicularis tetraptera; single oral dose 500 mg/kg) was “A”. For the same compound, the A.t. activity (Aspicularis tetraptera; single oral dose 1000 mg/kg) was “i”, the inhibition in vivo at 0.05 % (Nematospiroides dubius; [5]) was 85% and the inhibition in vivo at 0.1 % (Nematospiroides dubius; [5]) was 100%. For the same compound, the inhibition in vivo at 2000 mg/kg (Nematospiroides dubius; Heligmosomoides polygyrus, single oral dose 2000 mg/kg, read-out: % Eff. N.d.) was 55%, the “% Eff. N.d. (class symbol)” value (Nematospiroides dubius; single oral dose 100 mg/kg) was “i” and the “% Eff. N.d. (class symbol)” value (Nematospiroides dubius; single oral dose 500 mg/kg) was “i”. For the same compound, the “% Eff. N.d. (class symbol)” value (Nematospiroides dubius; single oral dose 1000 mg/kg) was “i”, the “% Efficacy” value ([4]; 0.05% drug in feed × 6 Days) was 82% and the “% Efficacy” value ([4]; single oral dose 100 mg/kg) was 40%. The “% Efficacy” value ([4]; single oral dose 500 mg/kg) was 100% and the “% Efficacy T.a.” value (Trichostrongylus axei) was 0%.

With `O=C(Nc1cc(F)ccc1F)c1c(O)c2ccccc2oc1=O` [Example 7] the A.s. activity (Ascaris suum; drug diet 0.1% for 7 days) was “i”, the H.n. activity (Hymenolepis nana; drug diet 0.1% for 7 days) was “i” and the A.t. activity (Aspicularis tetraptera; drug diet 0.1% for 7 days) was “i”. It also gave an inhibition in vivo at 0.1 % (Nematospiroides dubius; [5]) of 41%.

With `O=C(Nc1ccc(F)cc1)c1c(O)c2ccccc2oc1=O` [Example 3] the A.s. activity (Ascaris suum; drug diet 0.1% for 7 days) was “i”, the H.n. activity (Hymenolepis nana; drug diet 0.1% for 7 days) was “A” and the A.t. activity (Aspicularis tetraptera; drug diet 0.1% for 7 days) was “i”. The inhibition in vivo at 0.1 % (Nematospiroides dubius; [5]) was 54%.

`O=C(Nc1ccc(F)cc1F)c1c(O)c2ccccc2oc1=O` [Example 6] was tested, and the A.s. activity (Ascaris suum; drug diet 0.1% for 7 days) was “i”, the H.n. activity (Hymenolepis nana; drug diet 0.1% for 7 days) was “i” and the A.t. activity (Aspicularis tetraptera; drug diet 0.1% for 7 days) was “A”. The inhibition in vivo at 0.1 % (Nematospiroides dubius; [5]) was 94%.

In the case of `O=C(Nc1cccc(F)c1)c1c(O)c2ccccc2oc1=O` [Example 4], the A.s. activity (Ascaris suum; drug diet 0.1% for 7 days) was “i”, the H.n. activity (Hymenolepis nana; drug diet 0.1% for 7 days) was “i” and the A.t. activity (Aspicularis tetraptera; drug diet 0.1% for 7 days) was “i”. The inhibition in vivo at 0.1 % (Nematospiroides dubius; [5]) was 77%.

With `O=C(Nc1ccccc1F)c1c(O)c2ccccc2oc1=O` [Example 5] the A.s. activity (Ascaris suum; drug diet 0.1% for 7 days) was “i”, the H.n. activity (Hymenolepis nana; drug diet 0.1% for 7 days) was “i” and the A.t. activity (Aspicularis tetraptera; drug diet 0.1% for 7 days) was “i”. The inhibition in vivo at 0.1 % (Nematospiroides dubius; [5]) was 66%.

In the case of `O=C(Nc1ccc(Cl)cc1Cl)c1c(O)c2ccccc2oc1=O` [Example 8], the A.s. activity (Ascaris suum; drug diet 0.05% for 7 days) was “i”, the A.s. activity (Ascaris suum; drug diet 0.1% for 7 days) was “i” and the H.n. activity (Hymenolepis nana; drug diet 0.05% for 7 days) was “i”. The H.n. activity (Hymenolepis nana; drug diet 0.1% for 7 days) was “i”, the A.t. activity (Aspicularis tetraptera; drug diet 0.05% for 7 days) was “A” and the A.t. activity (Aspicularis tetraptera; drug diet 0.1% for 7 days) was “A”. For the same compound, the inhibition in vivo at 0.05 % (Nematospiroides dubius; [5]) was 94% and the inhibition in vivo at 0.1 % (Nematospiroides dubius; [5]) was 100%.

`O=C(Nc1cccc(Cl)c1)c1c(O)c2ccccc2oc1=O` [Example 2] was tested, and the A.s. activity (Ascaris suum; drug diet 0.05% for 7 days) was “i”, the A.s. activity (Ascaris suum; drug diet 0.1% for 7 days) was “i” and the H.n. activity (Hymenolepis nana; drug diet 0.05% for 7 days) was “i”. For the same compound, the H.n. activity (Hymenolepis nana; drug diet 0.1% for 7 days) was “A”, the A.t. activity (Aspicularis tetraptera; drug diet 0.05% for 7 days) was “i” and the A.t. activity (Aspicularis tetraptera; drug diet 0.1% for 7 days) was “A”. It also gave an inhibition in vivo at 0.05 % (Nematospiroides dubius; [5]) of 46% and an inhibition in vivo at 0.1 % (Nematospiroides dubius; [5]) of 65%.
